According to PubChem BioAssay (NCI):
Several values for one entry are separate records, joined by “and”; a condition that tells them apart may be missing. Identical values can stand only once.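 Five compound concentrations were applied to cells in 96-well plates for 48 hours; endpoints were derived by simple linear interpolation of the resulting dose-response curve. GI50 = concentration required for 50% inhibition of growth. TGI denotes the concentration required for complete inhibition of growth.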

Assays:
Experiment in all cases: NCI-60 cell line screen, 48 h
SF-539 CNS = test system: SF-539 CNS
SK-OV-3 ovarian = test system: SK-OV-3 ovarian
K-562 leukemia = test system: K-562 leukemia
SF-268 CNS = test system: SF-268 CNS
PC-3 prostate = test system: PC-3 prostate
ACHN renal = test system: ACHN renal
RPMI-8226 leukemia = test system: RPMI-8226 leukemia
DU-145 prostate = test system: DU-145 prostate
SR leukemia = test system: SR leukemia
NCI-H226 lung = test system: NCI-H226 lung
KM12 colon = test system: KM12 colon
M14 melanoma = test system: M14 melanoma
SNB-19 CNS = test system: SNB-19 CNS
HOP-62 NSCLC = test system: HOP-62 NSCLC
HS 578T breast = test system: HS 578T breast

## CCOC(=O)N1CCC2(CC1)C[C@](Sc1ccccc1)(C(C)=O)[C@H](C)O2
SF-539 CNS
  TGI: > 100 µM
SK-OV-3 ovarian
  TGI: > 100 µM
K-562 leukemia
  TGI: > 100 µM
SF-268 CNS
  TGI: > 100 µM
PC-3 prostate
  TGI: > 100 µM
ACHN renal
  TGI: > 100 µM
RPMI-8226 leukemia
  TGI: > 100 µM
DU-145 prostate
  TGI: > 100 µM
SR leukemia
  TGI: > 100 µM
NCI-H226 lung
  TGI: > 100 µM
KM12 colon
  TGI: > 100 µM
M14 melanoma
  TGI: > 100 µM
SNB-19 CNS
  TGI: > 100 µM
HOP-62 NSCLC
  TGI: > 100 µM
HS 578T breast
  TGI: > 100 µM

## CSC(=Nc1ccccc1)c1c(C)[nH]n(-c2ccccc2)c1=O
SF-539 CNS
  TGI: > 100 µM
SK-OV-3 ovarian
  TGI: > 100 µM
K-562 leukemia
  TGI: > 100 µM
SF-268 CNS
  TGI: > 100 µM
PC-3 prostate
  TGI: > 100 µM
RPMI-8226 leukemia
  TGI: > 100 µM
DU-145 prostate
  TGI: > 100 µM
SR leukemia
  TGI: > 100 µM
NCI-H226 lung
  TGI: > 100 µM
KM12 colon
  TGI: > 100 µM
M14 melanoma
  TGI: > 100 µM
SNB-19 CNS
  TGI: > 100 µM
HS 578T breast
  TGI: > 100 µM

## CC(C)(C)OC(=O)C1C(=O)NC(=O)CC1C(OCc1ccccc1)C(OCc1ccccc1)C(COCc1ccccc1)OCc1ccccc1 (stereo not given)
SF-539 CNS
  TGI: > 100 µM
K-562 leukemia
  TGI: > 100 µM
SF-268 CNS
  TGI: > 100 µM
PC-3 prostate
  TGI: > 100 µM
ACHN renal
  TGI: > 100 µM
RPMI-8226 leukemia
  GI50: 78.7 µM and 23 µM
  TGI: > 100 µM
DU-145 prostate
  TGI: > 100 µM
SR leukemia
  GI50: > 100 µM and 35.1 µM
  TGI: > 100 µM
NCI-H226 lung
  TGI: > 100 µM
KM12 colon
  GI50: > 100 µM and 24.5 µM
  TGI: > 100 µM
M14 melanoma
  TGI: > 100 µM
SNB-19 CNS
  TGI: > 100 µM
HS 578T breast
  GI50: > 100 µM and 16.2 µM
  TGI: > 100 µM

## O=C(CN1CCCCC1)c1ccc2[nH]c(=O)oc2c1
SF-539 CNS
  TGI: > 100 µM
SK-OV-3 ovarian
  TGI: > 100 µM
K-562 leukemia
  TGI: > 100 µM
SF-268 CNS
  TGI: > 100 µM
PC-3 prostate
  TGI: > 100 µM
ACHN renal
  TGI: > 100 µM
RPMI-8226 leukemia
  TGI: > 100 µM
DU-145 prostate
  TGI: > 100 µM
SR leukemia
  TGI: > 100 µM
NCI-H226 lung
  TGI: > 100 µM
KM12 colon
  TGI: > 100 µM
M14 melanoma
  TGI: > 100 µM
SNB-19 CNS
  TGI: > 100 µM
HOP-62 NSCLC
  TGI: > 100 µM
HS 578T breast
  TGI: > 100 µM

## Cc1ccc(S(=O)(=O)N(CC(O)COc2ccccc2)c2c(F)c(F)c(F)c(F)c2F)cc1 (stereo not given)
SF-539 CNS
  TGI: 34.4 µM
SK-OV-3 ovarian
  TGI: 43.8 µM
SF-268 CNS
  TGI: 30.9 µM
PC-3 prostate
  TGI: 29.2 µM
ACHN renal
  TGI: 32 µM
RPMI-8226 leukemia
  TGI: 12.7 µM
DU-145 prostate
  TGI: 72.9 µM
SR leukemia
  TGI: 47.7 µM
NCI-H226 lung
  TGI: 42.7 µM
KM12 colon
  TGI: > 100 µM
M14 melanoma
  TGI: 41 µM
SNB-19 CNS
  TGI: 43.3 µM
HOP-62 NSCLC
  TGI: 35.2 µM
HS 578T breast
  TGI: 42.6 µM

## O=C1O/C(=C(\Br)c2ccc([N+](=O)[O-])cc2)c2ccccc21
SF-539 CNS
  TGI: > 100 µM
SK-OV-3 ovarian
  TGI: > 100 µM
K-562 leukemia
  TGI: > 100 µM
SF-268 CNS
  TGI: > 100 µM
PC-3 prostate
  TGI: > 100 µM
ACHN renal
  TGI: > 100 µM
RPMI-8226 leukemia
  TGI: > 61.8 µM
DU-145 prostate
  TGI: > 100 µM
SR leukemia
  TGI: > 71.4 µM
NCI-H226 lung
  TGI: > 100 µM
KM12 colon
  TGI: > 100 µM
M14 melanoma
  TGI: > 100 µM
SNB-19 CNS
  TGI: > 100 µM
HOP-62 NSCLC
  TGI: > 100 µM
HS 578T breast
  TGI: > 100 µM

## COP(=O)(OC)[C@@](O)(c1ccccc1)[C@@H](O)[C@H](O)c1ccccc1
SF-539 CNS
  TGI: > 100 µM
SK-OV-3 ovarian
  TGI: > 100 µM
K-562 leukemia
  TGI: > 100 µM
SF-268 CNS
  TGI: > 100 µM
PC-3 prostate
  TGI: > 100 µM
ACHN renal
  TGI: > 100 µM
DU-145 prostate
  TGI: > 100 µM
SR leukemia
  TGI: > 100 µM
NCI-H226 lung
  TGI: > 100 µM
KM12 colon
  TGI: > 100 µM
M14 melanoma
  TGI: > 100 µM
SNB-19 CNS
  TGI: > 100 µM
HS 578T breast
  TGI: > 100 µM

## COc1ccc(Nc2nc3ccccc3nc2-c2cccs2)cc1OC
SF-539 CNS
  TGI: > 10 µM
SK-OV-3 ovarian
  TGI: > 10 µM
K-562 leukemia
  TGI: > 10 µM
SF-268 CNS
  TGI: > 10 µM
PC-3 prostate
  TGI: > 10 µM
ACHN renal
  TGI: > 10 µM
RPMI-8226 leukemia
  TGI: > 10 µM
DU-145 prostate
  TGI: > 10 µM
SR leukemia
  TGI: > 10 µM
NCI-H226 lung
  TGI: > 10 µM
KM12 colon
  TGI: > 10 µM
M14 melanoma
  TGI: > 10 µM
SNB-19 CNS
  TGI: > 10 µM
HOP-62 NSCLC
  TGI: > 10 µM
HS 578T breast
  TGI: > 10 µM

## OC1C2CN3CCN(C2)CC1(c1ccccc1)C3 (stereo not given)
SF-539 CNS
  TGI: > 100 µM
K-562 leukemia
  TGI: > 100 µM
SF-268 CNS
  TGI: > 100 µM
PC-3 prostate
  TGI: > 100 µM
ACHN renal
  TGI: > 100 µM
RPMI-8226 leukemia
  TGI: > 100 µM
DU-145 prostate
  TGI: > 100 µM
SR leukemia
  TGI: > 100 µM
NCI-H226 lung
  TGI: > 100 µM
KM12 colon
  TGI: > 100 µM
SNB-19 CNS
  TGI: > 100 µM
HOP-62 NSCLC
  TGI: > 100 µM
HS 578T breast
  TGI: > 100 µM

## Fc1ccc(/C=C2\COCC3=C2NC(=S)NC3c2ccc(F)cc2)cc1 (stereo not given)
SF-539 CNS
  TGI: 36.9 µM
SK-OV-3 ovarian
  TGI: 79.8 µM
K-562 leukemia
  TGI: 44.6 µM
SF-268 CNS
  TGI: 33.9 µM
PC-3 prostate
  TGI: 33 µM
ACHN renal
  TGI: > 100 µM
RPMI-8226 leukemia
  TGI: 44.4 µM
DU-145 prostate
  TGI: 77.3 µM
SR leukemia
  TGI: 45 µM
NCI-H226 lung
  TGI: 45.1 µM
KM12 colon
  TGI: 63.2 µM
M14 melanoma
  TGI: 30.1 µM
SNB-19 CNS
  TGI: 47.7 µM
HOP-62 NSCLC
  TGI: 31.7 µM
HS 578T breast
  TGI: 52.7 µM

## COc1ccc(C2c3cc4c(cc3OC(N3CCOCC3)C2C)OCO4)cc1OC (stereo not given)
SF-539 CNS
  TGI: 22.1 µM
SK-OV-3 ovarian
  TGI: 87.7 µM
K-562 leukemia
  TGI: > 56.5 µM
SF-268 CNS
  TGI: > 100 µM
PC-3 prostate
  TGI: > 100 µM
ACHN renal
  TGI: > 100 µM
RPMI-8226 leukemia
  TGI: > 100 µM
DU-145 prostate
  TGI: > 79.7 µM
SR leukemia
  TGI: > 100 µM
NCI-H226 lung
  TGI: 31.7 µM
KM12 colon
  TGI: > 100 µM
M14 melanoma
  TGI: 52.3 µM
SNB-19 CNS
  TGI: 77.6 µM
HOP-62 NSCLC
  TGI: 72.6 µM
HS 578T breast
  TGI: 22.1 µM

## CC(C)(C)c1ccc(O)c(C(O)c2ccccn2)c1 (stereo not given)
SF-539 CNS
  TGI: > 100 µM
K-562 leukemia
  TGI: > 100 µM
SF-268 CNS
  TGI: > 100 µM
PC-3 prostate
  TGI: > 100 µM
ACHN renal
  TGI: > 100 µM
RPMI-8226 leukemia
  TGI: > 100 µM
DU-145 prostate
  TGI: > 100 µM
SR leukemia
  TGI: > 100 µM
NCI-H226 lung
  TGI: > 100 µM
KM12 colon
  TGI: > 100 µM
SNB-19 CNS
  TGI: > 100 µM
HOP-62 NSCLC
  TGI: > 100 µM
HS 578T breast
  TGI: > 100 µM

## O=C(CSc1nc2ccccc2c(=O)n1-c1ccccc1)N=Nc1c(O)[nH]c2ccc(Br)cc12
SF-539 CNS
  TGI: 6.13 µM
SK-OV-3 ovarian
  TGI: 13.1 µM
K-562 leukemia
  TGI: 10.3 µM
SF-268 CNS
  TGI: > 38.3 µM
PC-3 prostate
  TGI: 4.03 µM
ACHN renal
  TGI: > 94.5 µM
RPMI-8226 leukemia
  TGI: > 38 µM
DU-145 prostate
  TGI: 3.39 µM
SR leukemia
  TGI: > 26.6 µM
KM12 colon
  TGI: 14 µM
M14 melanoma
  TGI: 6.87 µM
SNB-19 CNS
  TGI: 27.2 µM
HOP-62 NSCLC
  TGI: 7.07 µM
HS 578T breast
  TGI: > 100 µM

## Cc1cc2c(cc1Cl)SSc1cc(Cl)c(C)cc1S(=O)(=O)Nc1nc(N)nn1C(O)n1nc(N)nc1NS2(=O)=O
SF-539 CNS
  TGI: > 10 µM
SK-OV-3 ovarian
  TGI: > 10 µM
K-562 leukemia
  TGI: > 10 µM
SF-268 CNS
  TGI: > 10 µM
PC-3 prostate
  TGI: > 10 µM
ACHN renal
  TGI: > 10 µM
RPMI-8226 leukemia
  TGI: > 10 µM
DU-145 prostate
  TGI: > 10 µM
SR leukemia
  TGI: > 10 µM
NCI-H226 lung
  TGI: > 10 µM
KM12 colon
  TGI: > 10 µM
M14 melanoma
  TGI: > 10 µM
SNB-19 CNS
  TGI: > 10 µM
HOP-62 NSCLC
  TGI: > 10 µM
HS 578T breast
  TGI: > 10 µM

## CC(=O)Oc1ccc2c(c1)O/C(=C\c1ccc(N(C)C)cc1)C2=O
SF-539 CNS
  TGI: > 100 µM
SK-OV-3 ovarian
  TGI: > 100 µM
K-562 leukemia
  TGI: > 100 µM
SF-268 CNS
  TGI: > 100 µM
PC-3 prostate
  TGI: > 100 µM
ACHN renal
  TGI: > 100 µM
RPMI-8226 leukemia
  TGI: > 100 µM
DU-145 prostate
  TGI: > 100 µM
SR leukemia
  TGI: > 100 µM
NCI-H226 lung
  TGI: > 100 µM
KM12 colon
  TGI: > 100 µM
M14 melanoma
  TGI: > 100 µM
SNB-19 CNS
  TGI: > 100 µM
HOP-62 NSCLC
  TGI: > 100 µM
HS 578T breast
  TGI: 60.8 µM

## CC1(N2CCOCC2)CC2C(=[N+]1[O-])CCC/C2=N/O (stereo not given)
SF-539 CNS
  TGI: > 100 µM
SK-OV-3 ovarian
  TGI: > 100 µM
K-562 leukemia
  TGI: > 100 µM
SF-268 CNS
  TGI: > 100 µM
PC-3 prostate
  TGI: > 100 µM
ACHN renal
  TGI: > 100 µM
SR leukemia
  TGI: > 100 µM
NCI-H226 lung
  TGI: > 100 µM
KM12 colon
  TGI: > 100 µM
M14 melanoma
  TGI: > 100 µM
SNB-19 CNS
  TGI: > 100 µM
HOP-62 NSCLC
  TGI: > 100 µM
HS 578T breast
  TGI: > 100 µM
